Where two headings read alike, the source gives them in different places.
Tests used:
[1] = 4 hours after the injection
Experimental: Before measuring boron concentration of a sample, it needs to undergo microwave digestion first. A sample was initially placed into a Teflon high-pressure digestion vessel, then added with 3 mL of concentrated nitric acid (14N, 65%) and 0.5 mL of hydrogen peroxide (30-35%), and the vessel was sealed before placing the vessel into a microwave digestion system (MLS 1200 Milestone, Italia) for sample decomposition. […] The sample subsequently turned into a clear solution after complete digestion. After diluting the sample with deionized water, an Inductively Coupled Plasma Atomic Emission Spectrometer (ICP-AES, OPTIMA 2000 DV, PerkinElmer Instruments) was used to measure the boron concentration of the sample. For the conditions of the analysis, the temperature of argon plasma was set at 6000-7000 K; the analytical wavelength was set at 249.773 nm, and the liquid uptake rate was set at approximately 2 mL/min; the operating voltage after the formation of plasma was set at 40 V.

[2] = Experimental: The serum biochemical parameters of the rats were monitored by drawing blood samples from the rats' tail veins once before the tumor implantation, and weekly after the tumor implantation. When a rat was sacrificed, a blood sample was also drawn from its heart. Whole blood was collected from a rat and held in a serum separation tube (Vacationer, Franklin Lakes, N.J., USA), then centrifuged for 15 minutes at 3000 rpm, followed by preserving the serum upper clean solution by freezing. Afterwards, the College of Veterinary Medicine of National Chung Hsing University was commissioned with the task of analyzing the serum biochemical parameters of this solution, in which a serum biochemical analyzer (Chiron Diagnostics Corporation, Oberlin, Ohio, USA) was utilized to analyze concentrations of the serum enzymes related to liver and kidney functions.
[3] = liver tumor-bearing SD rats, 25 mg B/kg bw one-shot i.v., n = 12
[4] = system: N1-S1 rat hepatoma liver tumor
Experimental: The implantation of tumor cells: before anesthesia, the SD rats were subcutaneously injected with 0.1 mg/kg bw of Atropine, so as to inhibit the secretion of respiratory tract and salivary gland caused by anesthetics, and prevent bradycardia resulted from the overactivity of vagus nerve. After administering Atropine for 10-15 minutes, the rats were intraperitoneally injected with 20-40 mg/kg bw of Zoletil 50 and 10 mg/kg bw of Xylazine to anesthetize and sedate the animals. After the anesthetia, the subxiphoid incision was done to allow for tumor implantation. A surgical area on the rat was shaved and disinfected with 75% alcohol and iodine, and then a 3-cm incision was made along the midline of thin layer; the muscle layer was elevated to make an opening smaller than the skin layer, and both sides of the rat's abdomen was gently pressed to reveal the liver. A 29 G syringe was loaded with the N1-S1 tumor cell suspension in advance, and then used to slowly inject the suspension into a hepatic lobe of the rat; each of the rats were injected with 6×10^6 cell/0.1 mL of the suspension. After the implantation, the peritoneum was stitched back with an absorbable suture, before using a nylon suture to stitch back the skin layer. The operated rats were then released back into the cage, and their activities and survival were continuously monitored.
A commercial ultrasound scanner (TOSHIBA Xario) was used to scan the liver tumors, and a linear probe (PLT-1204BT) was used because it imparts better resolution; the frequency of the scanning was set at 14 MHz. After the anesthesia, the experimental animals were subjected to B-mode ultrasound imaging, so as to confirm whether the induction and growth of the tumors. […] Sagittal sections and transverse sections were obtained for the experimental animals before the BNCT treatment, and on the 10th, 30th, 60th, and 80th day after the BNCT treatment, in order to estimate the size of the tumors, and also combined Doppler mode with 3D imaging to evaluate the distribution of vasculature in the tumors, as well as the relative position of the tumors in the abdominal cavities.
The experimental animals were divided into three groups; a normal group (which was made up of normal rats), a tumor comparison group (in which the rats received the implantation of tumor cells but not the BNCT treatment), and a BNCT treatment group; the BNCT treatment group was divided into subgroups of rats that received different physical doses of irradiation.
The rats implanted with the N1-S1 tumor cells were subjected to the BNCT treatment on the 17th day after the implantation. […] At 15 minutes before the irradiation, the rats were injected with Atropine and Zoletil to allow for longer anesthesia. Each of the rats were placed on a fixing frame with its tumor-bearing area close to the beam aperture of the Tsing Hua Open-pool Reactor (THOR), and then different duration of neutron irradiation was performed under a specific neutron flux, in order to acquire a specific irradiation dose. After the irradiation, an on-line neutron monitoring system for the THOR was used to confirm the actual irradiation dose.
The tumor was scanned by using a commercial ultrasound scanner (TOSHIBA Xario), and the scanning frequency was set at 14 MHz. […] Ultrasound imaging was used to track growths or disappearances of the tumors, as well as changes in the blood vessels surrounding the tumors within 80 days of the BNCT treatment. The 2D mode of ultrasound imaging was employed to confirm the status of a tumor, and sagittal and transverse sections were obtained to estimate the size of the tumor, and the Doppler mode was combined with 3D imaging to evaluate the distribution of vasculature in the tumor, as well as in surroundings thereof.

[5] = injection dose 60 mg of 10B stable isotope per kilogram of human body weight; cited from earlier work
[6] = system: GS-9L, U-343MGa, HeLa, V79, and B16 cells; conditions: cited from earlier work
[7] = 4 days after the BNCT treatment
[8] = G2, day −1 (before BNCT, baseline)
[9] = G3, day −1 (before BNCT, baseline)

OB(O)O [boric acid]
difference between the boron concentrations in the tumors and the normal liver cells [1]: insignificant | histopathological section of the testis [2, 7]: did not show any abnormalities | change of GPT after the BNCT treatment ([2]; BNCT treatment group): returned to normal | change in BUN (kidney function) ([2]; BNCT treatment group, one month after the BNCT treatment): did not show any meaningful changes | clinical signs after BNCT ([2]; BNCT treatment groups): slight diarrhea and appetite loss | lowest body weight relative to the initial weight ([2]; G1 (11.18 Gy), 8 days after the irradiation): 78% | GOT (AST), serum ([2]; G1 (11.18 Gy), day −1 (before BNCT, baseline), normal 83-118): 250 ± 148 U/L | BUN, serum ([2]; G1, day 11 after BNCT): 15 ± 7 mg/dL | GOT (AST), serum ([2]; G1, day 11 after BNCT): 202 ± 127 U/L | GPT (ALT), serum ([2]; G1, day 11 after BNCT): 39 ± 13 U/L | BUN, serum ([2]; G1, day 30 after BNCT): 14 ± 1 mg/dL | GOT (AST), serum ([2]; G1, day 30 after BNCT): 111 ± 29 U/L | GPT (ALT), serum ([2]; G1, day 30 after BNCT): 50 ± 5 U/L | BUN, serum ([2]; G1, day 80 after BNCT): 17 ± 3 mg/dL | GOT (AST), serum ([2]; G1, day 80 after BNCT): 127 ± 8 U/L | GPT (ALT), serum ([2]; G1, day 80 after BNCT): 54 ± 4 U/L | BUN, serum ([2]; G1, day −1 (before BNCT, baseline), normal 11-17): 16 ± 2 mg/dL | GPT (ALT), serum ([2]; G1, day −1 (before BNCT, baseline), normal 35-47): 54 ± 7 U/L | lowest body weight relative to the initial weight ([2]; G2 (7.97 Gy), 4 days after the irradiation): 89% | GOT (AST), serum ([2]; G2 (7.97 Gy), day −1 (before BNCT, baseline)): 271 ± 39 U/L | BUN, serum ([2]; G2, day 11 after BNCT): 13 ± 2 mg/dL | GOT (AST), serum ([2]; G2, day 11 after BNCT): 204 ± 9 U/L | GPT (ALT), serum ([2]; G2, day 11 after BNCT): 45 ± 15 U/L | BUN, serum ([2]; G2, day 30 after BNCT): 17 ± 5 mg/dL | GOT (AST), serum ([2]; G2, day 30 after BNCT): 144 ± 20 U/L | GPT (ALT), serum ([2]; G2, day 30 after BNCT): 57 ± 3 U/L | BUN, serum ([2]; G2, day 80 after BNCT): 16 ± 2 mg/dL | GOT (AST), serum ([2]; G2, day 80 after BNCT): 116 ± 8 U/L | GPT (ALT), serum ([2]; G2, day 80 after BNCT): 62 ± 13 U/L | BUN, serum [2, 8]: 12 ± 1 mg/dL | GPT (ALT), serum [2, 8]: 56 ± 9 U/L | lowest body weight relative to the initial weight ([2]; G3 (5.61 Gy), 3 days after the irradiation): 92% | GOT (AST), serum ([2]; G3 (5.61 Gy), day −1 (before BNCT, baseline)): 168 ± 19 U/L | BUN, serum ([2]; G3, day 11 after BNCT): 15 ± 3 mg/dL | GOT (AST), serum ([2]; G3, day 11 after BNCT): 180 ± 8 U/L | GPT (ALT), serum ([2]; G3, day 11 after BNCT): 53 ± 4 U/L | BUN, serum ([2]; G3, day 30 after BNCT): 14 ± 3 mg/dL | GOT (AST), serum ([2]; G3, day 30 after BNCT): 153 ± 3 U/L | GPT (ALT), serum ([2]; G3, day 30 after BNCT): 55 ± 6 U/L | BUN, serum ([2]; G3, day 80 after BNCT): 18 ± 3 mg/dL | GOT (AST), serum ([2]; G3, day 80 after BNCT): 133 ± 41 U/L | GPT (ALT), serum ([2]; G3, day 80 after BNCT): 58 ± 12 U/L | BUN, serum [2, 9]: 13 ± 1 mg/dL | GPT (ALT), serum [2, 9]: 50 ± 10 U/L | change of liver enzyme GOT after the BNCT treatment ([2]; all three subgroups of the BNCT treatment group): decreased rapidly | radiation damage in pancreases and spleens, tissue histopathological sections ([2]; liver tumor-bearing rats after BNCT with 10B-boric acid): did not show radiation damage | radiation effect in the testis ([2]; one month after the BNCT irradiation, degree related to irradiation dose): atrophy of seminiferous tubules | testis effect ([2]; only rats that received 11.18 Gy (G1)): clear testicular atrophy | Cmax, highest drug concentration in blood [3]: 104.6 ± 36.23 ppm | reduction of tumor size ([4]; 30th day after BNCT treatment): approximately 90% | histopathology of tumor cells, high magnification [4, 7]: shrunk in size, become hollow, broken down and dead | tumor shrinkage ratio (ultrasound) ([4]; G1 (11.18 Gy), 30 days after BNCT): 0.94 ± 0.01 | tumor shrinkage ratio (ultrasound) ([4]; G1 (11.18 Gy), 60 days after BNCT): 0.94 ± 0.02 | tumor shrinkage ratio (ultrasound) ([4]; G1 (11.18 Gy), 80 days after BNCT): 0.95 ± 0.02 | tumor shrinkage ratio (ultrasound) ([4]; G1 (tumor physical dose 11.18 Gy), boric acid 25 mg 10B/kg i.v., 11 days after BNCT, 0 = initial size, 1 = vanished): 0.64 ± 0.07 | distribution of blood flow surrounding the tumor (Doppler imaging) ([4]; G1, G2 and G3, 8th, 12th, 18th day after BNCT): gradually decreased until it could no longer be detected | tumor shrinkage ratio (ultrasound) ([4]; G2 (7.97 Gy), 30 days after BNCT): 0.89 ± 0.05 | tumor shrinkage ratio (ultrasound) ([4]; G2 (7.97 Gy), 60 days after BNCT): 0.86 ± 0.07 | tumor shrinkage ratio (ultrasound) ([4]; G2 (7.97 Gy), 80 days after BNCT): 0.91 ± 0.05 | tumor shrinkage ratio (ultrasound) ([4]; G2 (tumor physical dose 7.97 Gy), 11 days after BNCT): 0.62 ± 0.1 | tumor shrinkage ratio (ultrasound) ([4]; G3 (5.61 Gy), 30 days after BNCT): 0.77 ± 0.06 | tumor shrinkage ratio (ultrasound) ([4]; G3 (5.61 Gy), 60 days after BNCT): 0.83 ± 0.08 | tumor shrinkage ratio (ultrasound) ([4]; G3 (5.61 Gy), 80 days after BNCT): 0.87 ± 0.04 | tumor shrinkage ratio (ultrasound) ([4]; G3 (tumor physical dose 5.61 Gy), 11 days after BNCT): 0.48 ± 0.42 | liver cancer in the rats after BNCT with 10B-boric acid ([4]; liver tumor-bearing rats): completely disappeared | smallest tumor, size relative to the original size ([4]; one month after the BNCT treatment): 6% | tumor size relative to the original tumor size ([4]; three subgroups G1-G3, one month after the BNCT treatment): less than or equal to 22% | new growth or recurrence of the tumors (ultrasound tracking) ([4]; up to 80 days after the BNCT treatment): did not reveal any new growth or recurrence of the tumors | adverse effect of injected boric acid [5]: no permanent adverse effect | accumulation efficiency in the cells ([6]; previous studies): 1 | ratio of boron concentrations intracellularly and extracellularly ([6]; simple or passive diffusion): 1

Reference: patent US9168301B2 (NATIONAL TSING HUA UNIVERSITY, priority 2011, dated 2015)
